Assays:
[1] = biological target: Tyrosine-protein kinase ABL1 (Homo sapiens) (UniProt P00519); conditions: Compound concentration 1000.0 nM
[2] = biological target: Activin receptor type-1-like (Homo sapiens) (UniProt P37023); conditions: Compound concentration 1000.0 nM
[3] = biological target: Atypical kinase COQ8B, mitochondrial (Homo sapiens) (UniProt Q96D53); conditions: Compound concentration 1000.0 nM
[4] = biological target: 5'-AMP-activated protein kinase catalytic subunit alpha-1 (Homo sapiens) (UniProt Q13131); conditions: Compound concentration 1000.0 nM
[5] = biological target: Mitogen-activated protein kinase kinase kinase 5 (Homo sapiens) (UniProt Q99683); conditions: Compound concentration 1000.0 nM
[6] = biological target: Cytoplasmic tyrosine-protein kinase BMX (Homo sapiens) (UniProt P51813); conditions: Compound concentration 1000.0 nM
[7] = biological target: Mitotic checkpoint serine/threonine-protein kinase BUB1 (Homo sapiens) (UniProt O43683); conditions: Compound concentration 1000.0 nM
[8] = biological target: Cyclin-dependent kinase 4 (Homo sapiens) (UniProt P11802); conditions: Compound concentration 1000.0 nM
[9] = biological target: Cyclin-dependent kinase 4 (Homo sapiens) (UniProt P11802); conditions: Compound concentration 1000.0 nM; remark: listed apart in the source
[10] = biological target: Serine/threonine-protein kinase Chk2 (Homo sapiens) (UniProt O96017); conditions: Compound concentration 1000.0 nM
[11] = biological target: Dual specificity protein kinase CLK1 (Homo sapiens) (UniProt P49759); conditions: Compound concentration 1000.0 nM
[12] = biological target: Death-associated protein kinase 1 (Homo sapiens) (UniProt P53355); conditions: Compound concentration 1000.0 nM
[13] = biological target: Dual specificity tyrosine-phosphorylation-regulated kinase 1B (Homo sapiens) (UniProt Q9Y463); conditions: Compound concentration 1000.0 nM
[14] = tested on: eIF-2-alpha kinase GCN2 (Homo sapiens), Q9P2K8 [S808G]; conditions: Compound concentration 1000.0 nM
[15] = biological target: Insulin receptor-related protein (Homo sapiens) (UniProt P14616); conditions: Compound concentration 1000.0 nM
[16] = biological target: Mast/stem cell growth factor receptor Kit (Homo sapiens) (UniProt P10721); conditions: Compound concentration 1000.0 nM
[17] = biological target: Tyrosine-protein kinase Lck (Homo sapiens) (UniProt P06239); conditions: Compound concentration 1000.0 nM
[18] = tested on: Leucine-rich repeat serine/threonine-protein kinase 2 (Homo sapiens), Q5S007 [G2019S]; conditions: Compound concentration 1000.0 nM
[19] = biological target: Dual specificity mitogen-activated protein kinase kinase 3 (Homo sapiens) (UniProt P46734); conditions: Compound concentration 1000.0 nM
[20] = biological target: Serine/threonine-protein kinase MRCK beta (Homo sapiens) (UniProt Q9Y5S2); conditions: Compound concentration 1000.0 nM
[21] = biological target: Myosin light chain kinase family member 4 (Homo sapiens) (UniProt Q86YV6); conditions: Compound concentration 1000.0 nM
[22] = biological target: Serine/threonine-protein kinase Nek11 (Homo sapiens) (UniProt Q8NG66); conditions: Compound concentration 1000.0 nM
[23] = biological target: Serine/threonine-protein kinase Nek9 (Homo sapiens) (UniProt Q8TD19); conditions: Compound concentration 1000.0 nM
[24] = tested on: Phosphatidylinositol 4,5-bisphosphate 3-kinase catalytic subunit alpha isoform (Homo sapiens), P42336 [H1047Y]; conditions: Compound concentration 1000.0 nM
[25] = biological target: Serine/threonine-protein kinase PLK3 (Homo sapiens) (UniProt Q9H4B4); conditions: Compound concentration 1000.0 nM
[26] = biological target: Serine/threonine-protein kinase D2 (Homo sapiens) (UniProt Q9BZL6); conditions: Compound concentration 1000.0 nM
[27] = biological target: RAF proto-oncogene serine/threonine-protein kinase (Homo sapiens) (UniProt P04049); conditions: Compound concentration 1000.0 nM
[28] = biological target: Receptor-interacting serine/threonine-protein kinase 2 (Homo sapiens) (UniProt O43353); conditions: Compound concentration 1000.0 nM
[29] = biological target: Receptor-interacting serine/threonine-protein kinase 4 (Homo sapiens) (UniProt P57078); conditions: Compound concentration 1000.0 nM
[30] = biological target: Dual serine/threonine and tyrosine protein kinase (Homo sapiens) (UniProt Q6XUX3); conditions: Compound concentration 1000.0 nM
[31] = biological target: Ribosomal protein S6 kinase alpha-1 (Homo sapiens) (UniProt Q15418); conditions: Compound concentration 1000.0 nM
[32] = biological target: SNF-related serine/threonine-protein kinase (Homo sapiens) (UniProt Q9NRH2); conditions: Compound concentration 1000.0 nM
[33] = biological target: SRSF protein kinase 1 (Homo sapiens) (UniProt Q96SB4); conditions: Compound concentration 1000.0 nM
[34] = biological target: TRAF2 and NCK-interacting protein kinase (Homo sapiens) (UniProt Q9UKE5); conditions: Compound concentration 1000.0 nM
[35] = biological target: Testis-specific serine/threonine-protein kinase 1 (Homo sapiens) (UniProt Q9BXA7); conditions: Compound concentration 1000.0 nM
[36] = biological target: Non-receptor tyrosine-protein kinase TYK2 (Homo sapiens) (UniProt P29597); conditions: Compound concentration 1000.0 nM
[37] = biological target: Serine/threonine-protein kinase ULK2 (Homo sapiens) (UniProt Q8IYT8); conditions: Compound concentration 1000.0 nM
[38] = biological target: Serine/threonine-protein kinase WNK2 (Homo sapiens) (UniProt Q9Y3S1); conditions: Compound concentration 1000.0 nM
[39] = biological target: Serine/threonine-protein kinase WNK4 (Homo sapiens) (UniProt Q96J92); conditions: Compound concentration 1000.0 nM
[40] = biological target: D(1A) dopamine receptor (Homo sapiens) (UniProt P21728); conditions: Compound concentration 10.0 uM
[41] = biological target: Kappa-type opioid receptor (Homo sapiens) (UniProt P41145); conditions: Compound concentration 10.0 uM
[42] = biological target: Histamine H4 receptor (Homo sapiens) (UniProt Q9H3N8); conditions: Compound concentration 10.0 uM
[43] = biological target: Alpha-2C adrenergic receptor (Homo sapiens) (UniProt P18825); conditions: Compound concentration 10.0 uM
[44] = biological target: Muscarinic acetylcholine receptor M4 (Homo sapiens) (UniProt P08173); conditions: Compound concentration 10.0 uM
[45] = species on record: Rattus norvegicus; conditions: Compound concentration 10.0 uM

Chain of Cyclin-dependent kinase 4 (Homo sapiens) (P11802 whole entry): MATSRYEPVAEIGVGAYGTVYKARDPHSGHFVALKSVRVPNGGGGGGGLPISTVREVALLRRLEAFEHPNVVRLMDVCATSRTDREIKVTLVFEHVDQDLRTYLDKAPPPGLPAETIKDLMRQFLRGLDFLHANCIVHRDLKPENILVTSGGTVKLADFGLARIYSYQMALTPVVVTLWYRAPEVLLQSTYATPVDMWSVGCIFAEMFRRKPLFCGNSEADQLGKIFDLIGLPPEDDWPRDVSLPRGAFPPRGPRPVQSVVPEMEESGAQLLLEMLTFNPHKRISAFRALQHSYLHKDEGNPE
Chain of Kappa-type opioid receptor (Homo sapiens) (P41145 whole entry): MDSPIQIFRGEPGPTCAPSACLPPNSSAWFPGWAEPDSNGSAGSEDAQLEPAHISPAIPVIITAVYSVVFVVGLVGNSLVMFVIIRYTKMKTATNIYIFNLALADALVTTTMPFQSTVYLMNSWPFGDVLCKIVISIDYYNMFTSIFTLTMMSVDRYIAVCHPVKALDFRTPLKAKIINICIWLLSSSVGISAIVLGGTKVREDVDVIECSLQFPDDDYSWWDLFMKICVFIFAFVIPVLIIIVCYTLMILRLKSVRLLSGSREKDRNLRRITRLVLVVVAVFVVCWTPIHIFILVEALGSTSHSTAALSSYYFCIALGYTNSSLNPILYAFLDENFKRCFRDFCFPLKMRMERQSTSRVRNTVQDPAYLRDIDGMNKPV
Chain of Serine/threonine-protein kinase Nek9 (Homo sapiens) (Q8TD19 whole entry, canonical isoform): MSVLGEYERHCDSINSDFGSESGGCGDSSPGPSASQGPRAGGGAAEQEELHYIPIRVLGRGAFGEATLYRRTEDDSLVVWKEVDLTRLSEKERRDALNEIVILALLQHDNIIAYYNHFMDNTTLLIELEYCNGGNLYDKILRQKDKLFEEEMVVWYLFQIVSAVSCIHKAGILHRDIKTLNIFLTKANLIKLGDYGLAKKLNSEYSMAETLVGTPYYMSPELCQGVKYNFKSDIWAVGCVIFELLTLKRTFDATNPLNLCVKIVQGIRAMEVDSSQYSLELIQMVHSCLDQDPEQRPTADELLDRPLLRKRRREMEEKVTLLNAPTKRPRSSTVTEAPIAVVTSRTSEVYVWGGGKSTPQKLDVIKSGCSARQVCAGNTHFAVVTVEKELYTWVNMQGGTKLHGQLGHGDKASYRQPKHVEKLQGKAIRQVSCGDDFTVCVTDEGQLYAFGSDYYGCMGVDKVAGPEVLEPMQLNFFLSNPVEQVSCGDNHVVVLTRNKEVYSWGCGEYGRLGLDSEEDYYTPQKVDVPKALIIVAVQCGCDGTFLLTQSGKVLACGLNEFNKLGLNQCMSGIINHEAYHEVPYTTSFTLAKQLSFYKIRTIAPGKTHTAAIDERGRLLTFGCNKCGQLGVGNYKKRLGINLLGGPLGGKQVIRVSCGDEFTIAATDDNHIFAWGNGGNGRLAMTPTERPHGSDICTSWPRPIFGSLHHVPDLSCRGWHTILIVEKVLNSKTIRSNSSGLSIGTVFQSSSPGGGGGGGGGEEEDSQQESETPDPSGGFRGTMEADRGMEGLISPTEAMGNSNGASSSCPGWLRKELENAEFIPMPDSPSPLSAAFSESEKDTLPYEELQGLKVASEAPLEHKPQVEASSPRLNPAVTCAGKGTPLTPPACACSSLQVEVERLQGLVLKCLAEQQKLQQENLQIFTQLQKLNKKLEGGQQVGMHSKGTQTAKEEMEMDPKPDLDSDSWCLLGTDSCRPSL
Chain of Dual specificity protein kinase CLK1 (Homo sapiens) (P49759 whole entry, looked up): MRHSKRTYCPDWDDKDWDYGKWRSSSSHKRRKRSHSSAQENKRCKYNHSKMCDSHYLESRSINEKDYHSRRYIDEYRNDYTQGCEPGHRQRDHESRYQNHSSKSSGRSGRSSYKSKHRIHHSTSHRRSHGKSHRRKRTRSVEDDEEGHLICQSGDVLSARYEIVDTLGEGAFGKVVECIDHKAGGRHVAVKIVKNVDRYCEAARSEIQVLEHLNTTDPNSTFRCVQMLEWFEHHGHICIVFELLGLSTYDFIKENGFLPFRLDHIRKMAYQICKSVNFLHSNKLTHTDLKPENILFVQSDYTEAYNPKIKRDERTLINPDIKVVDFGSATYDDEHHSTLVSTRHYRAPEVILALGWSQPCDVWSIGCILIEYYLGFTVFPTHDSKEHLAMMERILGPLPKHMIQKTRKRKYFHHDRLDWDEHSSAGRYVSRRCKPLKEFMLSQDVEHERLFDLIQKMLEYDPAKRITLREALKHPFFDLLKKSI
Chain of Atypical kinase COQ8B, mitochondrial (Homo sapiens) (Q96D53 whole entry): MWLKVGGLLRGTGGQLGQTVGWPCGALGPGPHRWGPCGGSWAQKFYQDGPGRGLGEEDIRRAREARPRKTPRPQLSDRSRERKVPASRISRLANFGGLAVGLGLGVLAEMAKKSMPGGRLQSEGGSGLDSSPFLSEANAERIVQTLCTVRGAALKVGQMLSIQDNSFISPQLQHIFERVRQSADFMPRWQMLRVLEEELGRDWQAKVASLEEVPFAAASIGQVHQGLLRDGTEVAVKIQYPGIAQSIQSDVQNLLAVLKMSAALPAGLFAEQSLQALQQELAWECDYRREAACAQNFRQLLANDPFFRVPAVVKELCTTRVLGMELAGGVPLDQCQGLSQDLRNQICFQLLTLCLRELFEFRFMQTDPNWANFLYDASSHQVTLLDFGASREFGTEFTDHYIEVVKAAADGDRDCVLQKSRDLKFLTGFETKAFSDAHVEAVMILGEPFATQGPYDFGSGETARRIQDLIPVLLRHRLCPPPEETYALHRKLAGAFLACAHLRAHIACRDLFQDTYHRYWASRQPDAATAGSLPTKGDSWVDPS
Chain of Muscarinic acetylcholine receptor M4 (Homo sapiens) (P08173 whole entry): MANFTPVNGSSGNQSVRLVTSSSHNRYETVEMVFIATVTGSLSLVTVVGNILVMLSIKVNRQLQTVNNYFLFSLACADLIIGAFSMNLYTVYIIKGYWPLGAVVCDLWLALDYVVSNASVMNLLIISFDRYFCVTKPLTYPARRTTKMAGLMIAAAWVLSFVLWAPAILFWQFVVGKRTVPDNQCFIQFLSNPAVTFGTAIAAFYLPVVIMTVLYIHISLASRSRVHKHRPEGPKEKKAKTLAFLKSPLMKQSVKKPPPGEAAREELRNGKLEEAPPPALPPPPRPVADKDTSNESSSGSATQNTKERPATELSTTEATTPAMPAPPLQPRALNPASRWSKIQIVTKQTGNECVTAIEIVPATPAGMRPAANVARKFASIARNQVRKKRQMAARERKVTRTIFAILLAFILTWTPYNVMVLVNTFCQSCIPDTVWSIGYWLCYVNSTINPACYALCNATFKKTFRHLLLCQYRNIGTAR
Chain of Cytoplasmic tyrosine-protein kinase BMX (Homo sapiens) (P51813 whole entry): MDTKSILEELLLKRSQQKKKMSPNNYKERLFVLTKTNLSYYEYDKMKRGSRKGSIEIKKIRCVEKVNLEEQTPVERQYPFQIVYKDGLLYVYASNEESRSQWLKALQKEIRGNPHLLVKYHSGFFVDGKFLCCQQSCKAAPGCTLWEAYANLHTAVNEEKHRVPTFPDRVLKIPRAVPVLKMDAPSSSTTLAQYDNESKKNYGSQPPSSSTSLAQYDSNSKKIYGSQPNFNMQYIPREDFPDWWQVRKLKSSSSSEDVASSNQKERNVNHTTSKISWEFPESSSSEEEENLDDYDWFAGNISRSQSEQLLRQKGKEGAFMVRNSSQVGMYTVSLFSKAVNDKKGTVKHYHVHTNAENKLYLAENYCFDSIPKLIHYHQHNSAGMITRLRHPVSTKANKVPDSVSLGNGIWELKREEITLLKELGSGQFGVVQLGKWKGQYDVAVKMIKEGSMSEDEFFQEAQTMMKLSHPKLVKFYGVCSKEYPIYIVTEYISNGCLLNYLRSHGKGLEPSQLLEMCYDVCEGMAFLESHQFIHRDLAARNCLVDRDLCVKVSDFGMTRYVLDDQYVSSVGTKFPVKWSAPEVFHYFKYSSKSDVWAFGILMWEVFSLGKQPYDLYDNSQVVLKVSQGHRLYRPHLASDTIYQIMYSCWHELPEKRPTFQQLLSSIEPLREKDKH
Chain of Ribosomal protein S6 kinase alpha-1 (Homo sapiens) (Q15418 whole entry): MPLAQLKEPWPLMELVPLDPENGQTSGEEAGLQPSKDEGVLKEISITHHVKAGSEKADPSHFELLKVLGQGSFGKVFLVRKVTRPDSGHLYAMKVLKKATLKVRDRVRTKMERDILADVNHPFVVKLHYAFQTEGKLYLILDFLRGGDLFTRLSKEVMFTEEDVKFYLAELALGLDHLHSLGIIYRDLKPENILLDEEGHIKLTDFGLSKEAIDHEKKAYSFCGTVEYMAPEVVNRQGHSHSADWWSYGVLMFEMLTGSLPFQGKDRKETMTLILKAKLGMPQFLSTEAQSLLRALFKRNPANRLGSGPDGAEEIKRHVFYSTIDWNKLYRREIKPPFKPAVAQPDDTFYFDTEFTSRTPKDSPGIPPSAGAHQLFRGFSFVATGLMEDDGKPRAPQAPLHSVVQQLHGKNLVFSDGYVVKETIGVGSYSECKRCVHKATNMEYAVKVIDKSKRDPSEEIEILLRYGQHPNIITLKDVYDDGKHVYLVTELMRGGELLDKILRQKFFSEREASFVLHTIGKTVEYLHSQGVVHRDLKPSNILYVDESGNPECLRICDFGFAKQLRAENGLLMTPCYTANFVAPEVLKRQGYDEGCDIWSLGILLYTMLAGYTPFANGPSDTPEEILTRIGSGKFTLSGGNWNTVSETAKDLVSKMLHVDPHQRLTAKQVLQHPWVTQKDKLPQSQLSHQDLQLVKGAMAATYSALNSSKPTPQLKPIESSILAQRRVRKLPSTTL
Chain of Myosin light chain kinase family member 4 (Homo sapiens) (Q86YV6 whole entry): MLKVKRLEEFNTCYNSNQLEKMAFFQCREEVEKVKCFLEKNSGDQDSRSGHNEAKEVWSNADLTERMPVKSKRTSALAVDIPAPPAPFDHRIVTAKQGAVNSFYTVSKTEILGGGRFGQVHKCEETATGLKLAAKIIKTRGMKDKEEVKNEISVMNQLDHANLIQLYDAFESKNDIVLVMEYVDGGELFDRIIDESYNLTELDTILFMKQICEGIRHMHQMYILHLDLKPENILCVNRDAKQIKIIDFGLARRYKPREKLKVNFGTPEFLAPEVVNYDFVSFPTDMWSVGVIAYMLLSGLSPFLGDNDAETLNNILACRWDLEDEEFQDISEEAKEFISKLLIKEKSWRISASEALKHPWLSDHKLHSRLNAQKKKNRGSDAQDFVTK

CO[C@@H](C)c1c(Nc2ccc([C@H](N(C)C(=O)C3CCS(=O)(=O)CC3)C(F)(F)F)cc2)cnc2cc(Cl)nn12 [NVS-MALT1]
inactive: residual activity [1] 63% | residual activity [2] 100% | residual activity [3] 77% | residual activity [4] 99% | residual activity [5] 84% | residual activity [6] 99% | residual activity [7] 100% | residual activity [8] 100% | residual activity [9] 100% | residual activity [10] 90% | residual activity [11] 81% | residual activity [12] 88% | residual activity [13] 78% | residual activity [14] 78% | residual activity [15] 94% | residual activity [16] 98% | residual activity [17] 83% | residual activity [18] 100% | residual activity [19] 93% | residual activity [20] 81% | residual activity [21] 86% | residual activity [22] 100% | residual activity [23] 77% | residual activity [24] 62% | residual activity [25] 86% | residual activity [26] 83% | residual activity [27] 97% | residual activity [28] 74% | residual activity [29] 76% | residual activity [30] 100% | residual activity [31] 91% | residual activity [32] 100% | residual activity [33] 96% | residual activity [34] 100% | residual activity [35] 100% | residual activity [36] 100% | residual activity [37] 96% | residual activity [38] 98% | residual activity [39] 99% | inhibition [40] 23.7% | inhibition [41] 31.9% | inhibition [42] 3.84% | inhibition [43] 4.48% | inhibition [44] 21.3% | inhibition [45] 11.6%

CO[C@@H](C)c1c(Nc2ccc([C@@H](N(C)C(=O)C3CCS(=O)(=O)CC3)C(F)(F)F)cc2)cnc2cc(Cl)nn12 [NVS-MALT1-C]
inactive: residual activity [1] 74% | residual activity [2] 100% | residual activity [3] 96% | residual activity [4] 92% | residual activity [5] 81% | residual activity [6] 83% | residual activity [7] 100% | residual activity [8] 100% | residual activity [9] 100% | residual activity [10] 100% | residual activity [11] 82% | residual activity [12] 89% | residual activity [13] 75% | residual activity [14] 68% | residual activity [15] 89% | residual activity [16] 85% | residual activity [17] 84% | residual activity [18] 100% | residual activity [19] 90% | residual activity [20] 89% | residual activity [21] 83% | residual activity [22] 100% | residual activity [23] 90% | residual activity [24] 52% | residual activity [25] 84% | residual activity [26] 86% | residual activity [27] 100% | residual activity [28] 83% | residual activity [29] 100% | residual activity [30] 100% | residual activity [31] 99% | residual activity [32] 100% | residual activity [33] 95% | residual activity [34] 100% | residual activity [35] 100% | residual activity [36] 100% | residual activity [37] 92% | residual activity [38] 100% | residual activity [39] 99% | inhibition [40] 17.9% | inhibition [41] 29.4% | inhibition [42] -8.46% | inhibition [43] 1.97% | inhibition [44] 21.1% | inhibition [45] 5.14%

Source: ChEMBL document CHEMBL4507320, “Data for DCP probe NVS-MALT1” (2021)
